Test results as given in publication PMC10216731 (2023).

What was measured:
[1] = tested on: aptamer for AMP (Apt) (DNA, aptamer) GCGGGCGGTTGTATAGCGG; test: fluorescence quenching of TPE-Am, lg[(F0-F)/F] against lg[Q] plot; conditions: Na+, K+ from 10 mM PBS (Na2HPO4, KH2PO4, NaCl, KCl); individual cation concentrations not given; 305 K; PBS:DMSO 99% PBS; TPE-Am aggregated; also measured at 287 and 318 K; apparent
[2] = tested on: aptamer for AMP (Apt) (DNA, aptamer) GCGGGCGGTTGTATAGCGG; test: fluorescence recovery by release of TPE-Am; conditions: 99% PBS (PBS:DMSO), pH 7.4, 25 °C, aptamer 500 nM
[3] = TPE-Am displacement, highest tested 100 nM

binding [2, 3]	SMILES	also measured
–	Nc1ccc(C(=C(c2ccccc2)c2ccccc2)c2ccccc2)cc1	Kb [1]: 626000 L/mol
no	O=C(N[C@H](CO)[C@H](O)c1ccc([N+](=O)[O-])cc1)C(Cl)Cl	–
no	O=[N+]([O-])N=C1NCCN1Cc1ccc(Cl)nc1	–
–	CC1(C)S[C@@H]2[C@H](NC(=O)[C@H](N)c3ccccc3)C(=O)N2[C@H]1C(=O)O	binding ([2]; TPE-Am 1 μM displaced, 10 nM AMP): yes
no	CN(C)[C@@H]1C(=O)C(C(N)=O)=C(O)[C@@]2(O)C(=O)C3=C(O)c4c(O)cccc4[C@@](C)(O)[C@H]3C[C@@H]12	–
no	CC[C@H]1OC(=O)[C@H](C)[C@@H](O[C@H]2C[C@@](C)(OC)[C@@H](O)[C@H](C)O2)[C@H](C)[C@@H](O[C@@H]2O[C@H](C)C[C@H](N(C)C)[C@H]2O)[C@](C)(O)C[C@@H](C)/C(=N\OCOCCOC)[C@H](C)[C@@H](O)[C@]1(C)O	–
